Measured values from patent US20260015574A1, “METHODS FOR SHORTENING LAG PHASE DURATION IN MICROORGANISMS” (YEDA RESEARCH AND DEVELOPMENT CO. LTD., priority 2022, published 2026).

Assays:
[1] = system: Phaeobacter inhibens DSM 17395; experiment: Growth / lag phase shortening assay of P. inhibens pure cultures with glucose; assay type: cell-based
Method: ASW was adjusted to pH 8 using HCl. If not otherwise stated, the medium was further supplemented with a source of carbon (glucose, 1 mM), nitrogen (NH4Cl, 5 mM), and sulfur (Na2SO4, 33 mM), referred to as ASW+CNS. […] A 96-well Tecan Infinite M Plex plate reader was used for high-resolution monitoring of bacterial growth dynamics at 30° C. An ImageStreamX Flow Imager system (Amnis) was used to characterize bacterial populations during the lag phase (FIG. 6). The growth of bacteria in co-culture with algae was monitored by counting colony forming units (CFU) on ½ YTSS agar plates. The growth of algae was monitored with a CellStream flow cytometer (Merck, Darmstadt, Germany).
To test whether methylated compounds affect the growth of bacteria, the inventors cultivated bacterial pure cultures with glucose as main growth substrate and supplemented the medium with the well-studied methylated compound dimethylsulfoniopropionate (DMSP). DMSP that is naturally produced by microalgae and found in detectable levels in seawater, is known to be metabolized by various bacteria. […] To quantify the lag phase shortening effect, the inventors calculated the Δlag time, which is the time difference between the commence of exponential growth in control cultures compared to treated cultures (FIG. 5B).
To reflect the natural low bacterial abundance in the oligotrophic ocean with low microalgal productivity, the current bacterial growth experiments were routinely initiated with an optical density (OD) of 0.00001. Such low initial ODs challenge the detection of cell divisions that occur prior to reaching an OD of at least 0.001, which is the theoretical limit of detection. To determine the actual length of the lag phase, the inventors analyzed bacterial cultures using imagining flow cytometry.

P. inhibens Δbmt mutant = experiment: Growth and lag phase shortening in Δbmt mutant; assay type: cell-based, Phaeobacter inhibens; conditions: 2 μM DMSP, minimal media with or without 200 μM methionine
Method: (§1) For creation of P. inhibens knockout cells, ˜1,000 bp regions upstream and downstream of the gene of interest were amplified by PCR (Phusion High-Fidelity DNA polymerase, Thermo Scientific), using primers that added homologous regions to gentamycin or kanamycin resistance markers. The fragments were assembled and cloned into the TOPOII vector (Invitrogen) using restriction-free cloning (Peleg Y. & Unger T., 2014), generating a knockout (KO) plasmid. P. inhibens electrocompetent cells (300 μl) were transformed with 10 μg of the constructed KO plasmid by a pulse of 1.8 kV (Bio Rad). Cells were selected on ½YTSS agar plates containing 30 μg/ml gentamycin or 150 μg/ml kanamycin. Successful knockouts in single cell clones were verified by PCR and sanger sequencing.

P. inhibens ΔmetE mutant = experiment: Lag phase shortening in ΔmetE mutant; assay type: cell-based, Phaeobacter inhibens; conditions: 2 μM DMSP, minimal media
Method: as §1
P. inhibens harbors another methionine synthase encoded by metE (FIGS. 1C and 4; gene 65). To test the possible contribution of this enzyme to lag phase shortening the inventors knocked-out the gene and examined the performance of the mutant strain. […] To further rule out the involvement of MetE in lag phase shortening, the inventors perturbed the function of MetE using an inhibitor of its methyl donor. To produce methionine, MetE utilizes 5-methyl-tetrahydrofolate (THF) as a methyl donor (Pejchal and Ludwig, 2005). THF is central in the process of bacterial nucleotide production (Quinlivan et al., 2000).

E. coli = experiment: Lag phase shortening in E. coli; assay type: cell-based, Escherichia coli; conditions: treatment with algal metabolites
Text: To explore whether lag phase shortening is a general mechanism among bacteria, the inventors tested the effect of methylated compounds in bacteria with different lifestyles. […] Since methylated compounds are a hallmark of photosynthesizing organisms, the inventors next tested a variety of bacteria that are plant-associated. […] Finally, to establish the prevalence of lag phase shortening among bacteria, the inventors tested the model bacterium E. coli. This bacterium is not commonly found associated with photosynthesizing organisms, and thus, is unlikely to respond to algal metabolites. […] The synchrony between specific compounds and different groups of bacteria may reflect the natural context […].

[2] = system: methionine synthesis activity in P. inhibens protein crude extracts; experiment: Methionine synthesis activity assay with P. inhibens protein crude extracts; assay type: biochemical, Phaeobacter inhibens; conditions: crude extracts of stationary bacterial cells treated with 1 μM DMSP for 2 hours; LC/MS
Method: The bacterium P. inhibens DSM 17395 was cultivated in 100 mL ASW with 5.5 mM glucose until reaching stationary phase, and then treated with 1 μM DMSP for 2 hours. Cell pellets of control and treated bacteria were harvested by 10 min centrifugation (15,000 rpm) at 4° C. The pellets were washed with buffer A (50 mM Hepes-KOH PH 7.5), resuspended in buffer B (50 mM Hepes-KOH PH 7.5, 10 mM β-mercaptoethanol, 1 mM EDTA) and disrupted by 5 min bead beating at 30 s^−1 with 300 mg silica beads (Mixer Mill MM-400, Retsch, Haan, Germany). The supernatant was collected by 5 min centrifugation (15,000 rpm). To measure the activity of enzymatic DMSP demethylation and methionine formation, 0.5 mL crude extract (1 mg/mL protein; determined with Bio-Rad protein assay, Hercules, California, U.S.) were incubated for 1 h with 1 mL Buffer C (60 mM PPB, 4.5 mM homocysteine, 4.5 mM DMSP, pH 7.5). The reaction mix was snap frozen in liquid nitrogen, and subsequently analyzed for product formation using LC/MS (FIG. 10).
To further elucidate the fate of methyl groups, the inventors analyzed the transcriptome of DMSP-treated P. inhibens bacteria during the lag phase, and compared it to untreated control cultures. […]

[3] = system: methyl group metabolism pathway genes of P. inhibens; experiment: Lag phase transcriptome (dual RNA-sequencing) of DMSP-treated bacteria; assay type: cell-based, Phaeobacter inhibens; conditions: 50 μM DMSP, within the first 15 min and 40 min of the lag phase, vs untreated
Method: The bacterium P. inhibens DSM 17395 was co-cultivated with the alga Emiliania huxleyi CCMP3266 (purchased from Bigelow Laboratory for Ocean Sciences, East Boothbay, ME) to investigate the metabolic response of the bacterium in the presence of algae, compared to bacteria grown as pure culture with 2 mM glucose. The analysis was conducted using a dual RNA-Sequencing method adapted from Avraham et al. 2016. The adapted method was previously described by Sperfeld et al., 2021. […] The resulting gene expression data, together with data from public databases (BioCyc and KEGG), were used to reconstruct the methyl group metabolism in P. inhibens DSM 17395 (FIG. 1C). The same dual RNA-sequencing method was used to identify genes that are differentially expressed during the lag phase of P. inhibens pure cultures treated with 50 μM DMSP, compared to control cultures without added DMSP (FIGS. 10A, and 11A-11B).
To further elucidate the fate of methyl groups, the inventors analyzed the transcriptome of DMSP-treated P. inhibens bacteria during the lag phase, and compared it to untreated control cultures. […] To further establish that DMSP methyl groups are assimilated via the methionine cycle, the inventors measured the methionine synthesis activity in protein crude extracts of stationary bacterial cells, using a biochemical assay followed by LC/MS analysis. […]

[4] = artificial seawater medium, 1 mM glucose, micromolar DMSP

C[S+](C)CCC(=O)[O-] [DMSP, dimethylsulfoniopropionate]
amount of DMSP per cell corresponding to the minimal effective concentration ([1]; 2 nM DMSP per 25,000 cells/mL): 80 amol
lag phase shortening in the presence of TMP ([1]; 2 μM DMSP, culture with TMP supplemented with nucleotides): still elicited lag phase shortening
growth rate [1, 4]: not affected
lag time [1, 4]: the lag time was shortened
lag phase shortening effect under salt stress ([1]; high salt conditions (FIG. 19A)): enhance the lag phase shortening effect
growth of the bacterium ([1]; micromolar concentrations of DMSP, glucose as main growth substrate): stimulate the growth of the bacterium
minimal DMSP concentration that triggered a significant lag phase shortening ([1]; per 25,000 cells/mL (OD 0.00001), glucose as main carbon source): 2 nM
lag phase shortening effect under temperature stress ([1]; temperatures that deviate from the 30° C. optimum (FIG. 19B)): enhance the lag phase shortening effect
lag phase shortening (P. inhibens Δbmt mutant): did not induce lag phase shortening
lag phase shortening (P. inhibens ΔmetE mutant): exhibited lag phase shortening similar to wild-type bacteria
lag phase shortening (E. coli): did not shorten the lag phase
methionine synthesis activity [2]: elevated
expression of the methyl group metabolism pathway [3]: upregulated
